Results from publication PMC3445653 (Neuropharmacology, 2012).
“Also recorded” adds a separate entry of the source. Like-named read-outs stand apart in the source and are kept apart here.

How the values were obtained:
[1] = target: T1, PKMζ (Homo sapiens, UniProt Q05513); conditions: ref Ling et al., 2002; cited from earlier work
T1 sequence (Q05513 1-409 isoform Q05513-2): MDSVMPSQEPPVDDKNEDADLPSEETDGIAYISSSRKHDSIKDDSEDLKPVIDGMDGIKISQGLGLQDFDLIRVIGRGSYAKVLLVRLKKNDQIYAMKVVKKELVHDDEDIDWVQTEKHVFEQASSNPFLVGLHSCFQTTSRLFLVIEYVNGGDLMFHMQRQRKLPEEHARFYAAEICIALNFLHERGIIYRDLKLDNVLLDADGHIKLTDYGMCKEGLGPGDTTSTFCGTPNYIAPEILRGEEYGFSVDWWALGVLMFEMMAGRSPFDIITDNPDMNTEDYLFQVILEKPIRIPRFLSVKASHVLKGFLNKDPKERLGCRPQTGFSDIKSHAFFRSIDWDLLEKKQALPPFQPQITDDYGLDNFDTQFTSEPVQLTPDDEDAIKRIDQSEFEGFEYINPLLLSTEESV

[2] = system: catalytic domain of PKC; conditions: ref Herbert et al., 1990, cited from earlier work
[3] = system: PKMζ-RFP fusion protein; conditions: ref Wu-Zhang et al., 2012, cited from earlier work
[4] = target: T1, PKMζ; test: PKMζ phosphorylation assay, PKCε substrate; format: biochemical
[5] = system: PDK1 phosphorylation of PKMζ (T410); test: Activation loop; format: cell-based, Sprague Dawley rats; conditions: 100 nM for 4 hr, control vs staurosporine p = 0.9, n = 5
[6] = system: baseline fEPSPs in hippocampal slices; test: Baseline fEPSP in hippocampal slices; format: cell-based, Sprague Dawley rats; conditions: 100 nM; p = 0.8 between 10 and 60 min; n = 4
[7] = system: LTP induction; conditions: 100 nM; hippocampal slices; ref Ling et al., 2002; cited from earlier work
[8] = system: PDK1 phosphorylation of N-terminally tagged, eGFP-PKMζ overexpressed in 293T cells; test: Activation loop phosphorylation of eGFP-PKMζ overexpressed in 293T cells; format: cell-based; conditions: 100 nM for 4 hr; A. Tcherepanov and T. C. Sacktor, unpublished data
[9] = system: LTP maintenance; conditions: cited from earlier work
[10] = system: baseline postsynaptic AMPAR responses in CA1 pyramidal cells of hippocampal slices; test: Baseline postsynaptic AMPAR-mediated EPSCs; format: cell-based, Sprague Dawley rats; conditions: 5 μM scrambled ZIP; p = 0.6, 1 min before application vs 15 min after; n = 4

Compound: COc1ccc2c(c[n+](C)c3c4cc5c(cc4ccc23)OCO5)c1OC [chelerythrine]
- inhibition of PKM forms [1]: highly effective on PKM forms; also recorded: particularly effective on PKM forms
- mode of inhibition ([2]; inhibition of substrate binding): competitive inhibitors of substrate binding
- inhibition of catalytic domain of PKC ([2]; Thompson and Fields, 1996): inhibitor of the catalytic domain of PKC
- inhibition of PKMζ fusion protein in transfected cultured cells [3]: did not inhibit
- inhibition of PKMζ, 10 μM DTT ([4]; DTT 10 μM, PKMζ 5 nM, 25 μM PKCε substrate, n = 4): effective
- inhibition of PKMζ, 1 mM DTT ([4]; DTT 1 mM, PKMζ 5 nM, 25 μM PKCε substrate, n = 4): much less effective
- sensitivity to redox state ([4]; high levels of dithiothreitol (DTT), PKMζ 5 nM): redox-sensitive inhibitor of PKMζ; also recorded: sensitive to redox state

Compound: CN[C@@H]1C[C@H]2O[C@@](C)([C@@H]1OC)n1c3ccccc3c3c4c(c5c6ccccc6n2c5c31)C(=O)NC4 [staurosporine]
- phosphorylation state of the activation loop of PKMζ (T410P) [5]: no effect
- phosphorylation state of the activation loop of PKMζ (T410P) ([5]; listed as Staurosporine): does not alter the phosphorylation state
- effect on baseline fEPSP [6]: no effect on baseline
- activation loop phosphorylation of overexpressed PKMζ-RFP ([3]; cultured cells): reduce activation loop phosphorylation
- effect on LTP induction [7]: prevented LTP induction; also recorded: block LTP induction
- PDK1 phosphorylation of eGFP-PKMζ [8]: no effect
- effect on LTP maintenance ([9]; 100 nM, 4 hours, hippocampal slices, ref Ling et al., 2002): does not reverse LTP maintenance; also recorded: but not LTP maintenance

Compound: myr-RLYRKRIWRSAGR-OH [scrambled ZIP]
- effect on baseline postsynaptic AMPAR responses [10]: no effect
- efficacy on inhibiting PKMζ biochemically in vitro relative to ZIP ([4]; Fig. 4A, right, compared with ZIP): less effective
- inhibition of PKMζ at higher doses ([4]; higher doses, Fig. 4A, right): will also inhibit PKMζ at higher doses
- effect on LTP maintenance ([9]; dose equivalent to ZIP (5 μM), ref Serrano et al., 2005): ineffective
